Tested on: HCV genotype 1a replicon cell line
Experiment: HCV Genotype 1a Replicon Assay
Format: cell-based, hepatitis C virus
Conditions: Huh7.5 cell background, NS3-specific protease activity in lysates, 48 or 72 hours; for EC50: Hepatitis C virus, read-out: Genotype 1a (pEC50 class) (converted)
Method: Assay 2: HCV Genotype 1a Replicon Assay
The HCV genotype 1a replicon cell line was obtained from Apath LLC (APC89; Huh7.5 cell background). This subgenomic replicon contains the N-terminus of the HCV core protein fused to the neomycin-resistance selectable marker. The EMCV IRES lies downstream and drives expression of the non-structural proteins NS3-NS5B. Compound potencies were determined using the NS3-specific protease activity in lysates as a measurement of compound inhibition of replicon levels.
Cells were grown at 37° C. in a 5% CO2 humidified incubator in DMEM (Invitrogen) with 10% FBS (HyClone), 1×NEAA (Invitrogen), 1× Pen-Strep (Invitrogen), and 850 μg/mL G418 (Invitrogen). On day 1 of the assay, cells were plated at 15,000 cells/well in black 96-well tissue culture plates (Costar) in 200 μL media lacking G418. Four hours later, once the cells had adhered, the media was removed and replaced with media (no G418) containing dose-responses of test compounds. Compounds were initially diluted in DMSO and then diluted another 200× in media to bring the final DMSO concentration down to 0.5%. The cells were incubated with test compounds for 48 or 72 hours. At the end of the incubation period, media and compound were removed from the plates.
To determine the NS3-specific protease activity in lysates, the cells were lysed at room temperature in 50 μL/well of 50 mM Hepes pH 7.5, 150 mM NaCl, 15% Glycerol, 0.15% Triton X-100, 10 mM DTT for 20 minutes with shaking. 50 μL of an NS3/4a protease-specific FRET substrate (Anaspec RET SI Cat#22991) was then added to the wells at a final concentration of 15 μM. The plates were incubated at 37° C. for 20 minutes, which corresponds to a timepoint at which the protease activity is still in the linear phase. Protease activity was determined by measuring fluorescence (Excitation: 340 nm; Emission: 509 nm).
To analyze the data, the fluorescence was plotted vs. the compound concentration, and EC50 values were determined from a 4-parameter robust fit model using GraphPad Prism software.

| Structure (SMILES) | EC50 | Genotype 1a (pEC50 class) |
| --- | --- | --- |
| COC(=O)N[C@H](C(=O)N1C[C@@H](C)C[C@H]1c1nc2c(ccc3cc(-c4ccc(NC(=O)N5CCN(C6CCN(C(=O)C(C)(C)C)CC6)CC5)cc4OC(F)(F)F)ccc32)[nH]1)C(C)C [Example 15, [(S)-1-((2S,4S)-2-{7-[4-({4-[1-(2,2-Dimethyl-propionyl)-piperidin-4-yl]-piperazine-1-carbonyl}-amino)-2-trifluoromethoxy-phenyl]-3H-naphtho[1,2-d]imidazol-2-yl}-4-methyl-pyrrolidine-1-carbonyl)-2-methyl-propyl]-carbamic acid methyl ester] | < 0.1 nM | – |
| COC(=O)N[C@H](C(=O)N1C[C@@H](C)C[C@H]1c1nc(-c2ccc(-c3cc(F)c(NC(=O)N4CCC(N5CCN(C(=O)[C@H]6CC6(C)C)CC5)CC4)cc3OC(F)(F)F)cc2)c[nH]1)C(C)C [Example 4-8] | – | C (C represents pEC50 between and 9 and about 10, (EC50 between 1 nM and 0.1 nM)) |
| CNC(=O)N1CCC(N2CCN(C(=O)Nc3ccc(-c4ccc(-c5c[nH]c([C@@H]6C[C@H](C)CN6C(=O)[C@@H](NC(=O)OC)C(C)C)n5)cc4)c(OC(F)(F)F)c3)CC2)CC1 [Example 2-12] | – | C (C represents pEC50 between and 9 and about 10, (EC50 between 1 nM and 0.1 nM)) |
| COC(=O)N[C@H](C(=O)N1CCC[C@H]1c1nc(-c2ccc(-c3cc(Cl)c(NC(=O)N4CCN(C5CCN(C(=O)OC(C)(C)C)CC5)CC4)cc3OC(F)(F)F)cc2)c[nH]1)C(C)C [Example 1-36] | – | C (C represents pEC50 between and 9 and about 10, (EC50 between 1 nM and 0.1 nM)) |
| COC(=O)N[C@H](C(=O)N1CCC[C@H]1c1nc(-c2ccc(-c3ccc(NC(=O)N4CCN(C5CCN(C(=O)C6CC6)CC5)C[C@H]4C)cc3OC(F)(F)F)cc2)c[nH]1)C(C)C [Example 1-18] | – | C (C represents pEC50 between and 9 and about 10, (EC50 between 1 nM and 0.1 nM)) |
| CNC(=O)N1CCC(N2CCN(C(=O)Nc3ccc(-c4ccc(-c5c[nH]c(C6CCCN6C(=O)C(NC(=O)OC)C(C)C)n5)cc4)c(OC(F)(F)F)c3)CC2CO)CC1 (stereo not drawn) [Example 1-43] | – | A (A represents a pEC50 value between 6 and 8 (EC50 between 1 μM and 10 nM)) |
| COC(=O)N[C@H](C(=O)N1C[C@@H](C)C[C@H]1c1nc(-c2ccc(-c3cc(Cl)c(NC(=O)N4CCC(N5CCN(C(=O)[C@H]6CC6(C)C)CC5)CC4)cc3OC(F)(F)F)cc2)c[nH]1)C(C)C [Example 4-14] | – | C (C represents pEC50 between and 9 and about 10, (EC50 between 1 nM and 0.1 nM)) |
| COC(=O)N[C@H](C(=O)N1C[C@@H](C)C[C@H]1c1nc(-c2ccc(-c3cc(Cl)c(NC(=O)N4CCC(N5CCN(C(=O)C6CC6)[C@@H](C)C5)CC4)cc3OC(F)(F)F)cc2)c[nH]1)C(C)C [Example 4-5] | – | B (B represents pEC50 between 8 and 9 (EC50 between 1 and 10 nM)) |
| COC(=O)N[C@H](C(=O)N1C[C@@H](C)C[C@H]1c1nc(-c2ccc(-c3ccc(NC(=O)N4CCN(C5CCN(C(=O)C6CC6)CC5)CC4)cc3OC(F)(F)F)cc2)c(F)[nH]1)C(C)C [Example 9] | < 0.1 nM | – |
| COC(=O)N[C@H](C(=O)N1C[C@@H](C)C[C@H]1c1nc(-c2ccc(-c3cc(F)c(NC(=O)N4CCC(N5CCN(C(=O)C6CC6)CC5)CC4)cc3OC(F)(F)F)cc2)c[nH]1)C(C)C [Example 4-9] | – | C (C represents pEC50 between and 9 and about 10, (EC50 between 1 nM and 0.1 nM)) |
| COC(=O)N[C@H](C(=O)N1C[C@@H](C)C[C@H]1c1nc(-c2ccc(-c3ccc(NC(=O)N4CCN(C5CCN(C(=O)C6CC6(F)F)CC5)CC4)cc3OC(F)(F)F)cc2)c[nH]1)C(C)C (stereo partly drawn) [Example 2-10] | – | C (C represents pEC50 between and 9 and about 10, (EC50 between 1 nM and 0.1 nM)) |
| CCN(CC)[C@@H](C(=O)N1CCC(N2CCN(C(=O)Nc3ccc(-c4ccc(-c5c[nH]c([C@@H]6CCCN6C(=O)[C@@H](NC(=O)OC)C(C)C)n5)cc4)c(OC(F)(F)F)c3)CC2)CC1)c1ccccc1 [Example 1-32] | – | A (A represents a pEC50 value between 6 and 8 (EC50 between 1 μM and 10 nM)) |
| CNC(=O)N1CCN(C2CCN(C(=O)Nc3ccc(-c4ccc(-c5c[nH]c([C@@H]6CCCN6C(=O)[C@@H](NC(=O)OC)C(C)C)n5)cc4)cc3)CC2)CC1 [Example 3-5] | – | A (A represents a pEC50 value between 6 and 8 (EC50 between 1 μM and 10 nM)) |
| COC(=O)N[C@H](C(=O)N1C[C@@H](C)C[C@H]1c1nc(-c2ccc(-c3cc(Cl)c(NC(=O)N4CCC(N5CCN(C(=O)OC(C)(C)C)CC5)CC4)cc3OC(F)(F)F)cc2)c[nH]1)C(C)C [Example 4-12] | – | B (B represents pEC50 between 8 and 9 (EC50 between 1 and 10 nM)) |
| COC(=O)NC(C(=O)N1CCCC1c1nc(-c2ccc(-c3ccc(NC(=O)N4CCN(C5CCN(C(=O)C6CC6(C)C)CC5)C(CO)C4)cc3OC(F)(F)F)cc2)c[nH]1)C(C)C (stereo not drawn) [Example 1-45] | – | B (B represents pEC50 between 8 and 9 (EC50 between 1 and 10 nM)) |
| COC(=O)N[C@H](C(=O)N1CCC[C@H]1c1nc(-c2ccc(-c3ccc(NC(=O)N4CCN(C5CCN(C(=O)C(C)NC(N)=O)CC5)CC4)cc3OC(F)(F)F)cc2)c[nH]1)C(C)C (stereo partly drawn) [Example 1-15] | – | B (B represents pEC50 between 8 and 9 (EC50 between 1 and 10 nM)) |
| COC(=O)N[C@H](C(=O)N1C[C@@H](C)C[C@H]1c1nc(-c2ccc(-c3ccc(NC(=O)N4CCN(C5CCN(C(=O)OC(C)(C)C)CC5)CC4)cc3OC(F)(F)F)cc2)c(F)[nH]1)C(C)C [Example 2-28] | – | D (D represents pEC50>10 (EC50<0.1 nM)) |
| CNC(=O)N1CCC(N2CCN(C(=O)Nc3ccc(-c4ccc(-c5c[nH]c(C6CCCN6C(=O)C(NC(=O)OC)C(C)C)n5)cc4)c(OC(F)(F)F)c3)CC2C)CC1 (stereo not drawn) [Example 1-39] | – | B (B represents pEC50 between 8 and 9 (EC50 between 1 and 10 nM)) |
| COC(=O)N[C@H](C(=O)N1C[C@@H](OC)C[C@H]1c1nc(-c2ccc(-c3ccc(NC(=O)N4CCC(N5CCN(C(=O)C6CCC6(C)C)CC5)CC4)cc3OC(F)(F)F)cc2)c[nH]1)C(C)C (stereo partly drawn) [Example 14, [(S)-1-((2S,4S)-2-{4-[4′-({4-[4-(2,2-Dimethyl-cyclobutanecarbonyl)-piperazin-1-yl]-piperidine-1-carbonyl}-amino)-2′-trifluoromethoxy-biphenyl-4-yl]-1H-imidazol-2-yl}-4-methoxy-pyrrolidine-1-carbonyl)-2-methyl-propyl]-carbamic acid methyl ester] | 0.1 to 1 nM | – |
| COC(=O)N[C@H](C(=O)N1CCC[C@H]1c1nc(-c2ccc(-c3ccc(NC(=O)N4CCN(C5CCN(C(=O)c6c[nH]cn6)CC5)CC4)cc3OC(F)(F)F)cc2)c[nH]1)C(C)C [Example 1-23] | – | C (C represents pEC50 between and 9 and about 10, (EC50 between 1 nM and 0.1 nM)) |
| COC(=O)N[C@H](C(=O)N1CCC[C@H]1c1nc(-c2ccc(-c3cc(Cl)c(NC(=O)N4CCN(C5CCN(C(=O)[C@H]6CC6(C)C)CC5)CC4)cc3OC(F)(F)F)cc2)c[nH]1)C(C)C [Example 1-34] | – | C (C represents pEC50 between and 9 and about 10, (EC50 between 1 nM and 0.1 nM)) |
| COC(=O)N[C@H](C(=O)N1CCC[C@H]1c1nc(-c2ccc(-c3ccc(NC(=O)N4CCN(C5CCN(C(=O)C67CC8CC(CC(O)(C8)C6)C7)CC5)CC4)cc3OC(F)(F)F)cc2)c[nH]1)C(C)C [Example 1-10] | – | B (B represents pEC50 between 8 and 9 (EC50 between 1 and 10 nM)) |
| COC(=O)N[C@H](C(=O)N1C[C@@H](C)C[C@H]1c1nc(-c2ccc(-c3cc(Cl)c(NC(=O)N4CCN(C5CCN(C(=O)C6CC(C)(C)C6)CC5)CC4)cc3OC(F)(F)F)cc2)c[nH]1)C(C)C [Example 2-25] | – | B (B represents pEC50 between 8 and 9 (EC50 between 1 and 10 nM)) |
| COC(=O)N[C@H](C(=O)N1C[C@@H](OC)C[C@H]1c1nc(-c2ccc(-c3ccc(NC(=O)N4CCN(C5CCN(C(=O)C6CC6)CC5)CC4)cc3OC(F)(F)F)cc2)c[nH]1)C(C)C [Example 5-3] | 0.1 to 1 nM | – |
| COC(=O)N[C@H](C(=O)N1CCC[C@H]1c1nc(-c2ccc(-c3ccc(NC(=O)N4CCN(C5CCN(C(=O)c6c[nH]cn6)CC5)CC4)cc3)cc2)c[nH]1)C(C)C [Example 1-5] | – | B (B represents pEC50 between 8 and 9 (EC50 between 1 and 10 nM)) |
| COC(=O)N[C@H](C(=O)N1CCC[C@H]1c1nc(-c2ccc(-c3ccc(NC(=O)N4CCN(C5CCN(C(=O)C6CC7CCC6C7)CC5)CC4)cc3OC(F)(F)F)cc2)c[nH]1)C(C)C (stereo partly drawn) [Example 1-11] | – | C (C represents pEC50 between and 9 and about 10, (EC50 between 1 nM and 0.1 nM)) |
| COC(=O)N[C@H](C(=O)N1C[C@@H](C)C[C@H]1c1nc(-c2ccc(-c3cc(F)c(NC(=O)N4CCN(C5CCN(C(=O)C6CC6(F)Cl)CC5)CC4)cc3OC(F)(F)F)cc2)c[nH]1)C(C)C (stereo partly drawn) [Example 2-14] | – | C (C represents pEC50 between and 9 and about 10, (EC50 between 1 nM and 0.1 nM)) |

Source: patent US9206159B2, “Piperazine-piperidine compounds as hepatitis C virus inhibitors” (Theravance Biopharma R&D IP, LLC, priority 2012, dated 2015)
